# In US20100150887A1, “Tissue Progenitor Cells That Overexpress ERG” (priority 2007, published 2010):
# Tested on: HERG overexpressing cells
# Test: Dofetilide responsiveness of action potentials
# Conditions: action potential after 1, 2 or 3 minute treatment (FIGS. 3A-D)
# Description: AP is shown with-out DOF (FIG. 3A), or after 1 minute (FIG. 3B), 2 minute (FIG. 3C), or 3 minute treatments (FIG. 3D).
smiles,measurement,value
"CN(CCOc1ccc(NS(C)(=O)=O)cc1)CCc1ccc(NS(C)(=O)=O)cc1 [dofetilide, Dofetilide]",sensitivity to the effects of dofetilide,sensitive
